Reference: US9340569B2, “Methods and compositions for inhibiting clostridium difficile spore germination and outgrowth” (priority 2008, dated 2016)
“Also recorded” adds a separate entry of the source. Counter-ions that a name gives are not always drawn. Like-named read-outs stand apart in the source and are kept apart here.

What was measured:
C. difficile spores [1] = format: cell-based, Clostridium difficile
C. difficile spores [2] = format: cell-based, Clostridium difficile; remark: listed apart in the source
vegetative C. difficile = format: cell-based, Clostridium difficile
C. perfringens SM101 = format: cell-based, Clostridium perfringens
C. difficile spores [3] = test: Inhibition of taurocholate-induced C. difficile spore germination, Ki from Lineweaver-Burk plot; format: cell-based, Clostridium difficile; conditions: for Inhibits Germination?: BHIS with 2-50 mM taurocholate plus inhibitor, OD600; for Ki: binding constant of inhibitor for the spore, competition with taurocholate
[4] = rat, in vivo; cited from earlier work
[5] = in vivo; cited from earlier work
C. difficile spores [6] = test system: C. difficile spores

Structure (SMILES): C[C@H](CCC(=O)NCC(=O)O)[C@H]1CC[C@H]2[C@@H]3[C@H](O)C[C@@H]4C[C@H](O)CC[C@]4(C)[C@H]3C[C@H](O)[C@]12C [GA, glycocholate]
- colony formation by spores, in words (C. difficile spores [1]): stimulated efficient colony formation
- germination (decrease in optical density) in BHIS (C. difficile spores [2]): did not result in any significant decrease in the optical density
- growth of vegetative C. difficile (vegetative C. difficile): able to grow
- growth of vegetative C. perfringens (C. perfringens SM101; BHIS containing 0.1% bile salt): able to grow, however, to wild-type levels

Structure (SMILES): COC(=O)CC[C@@H](C)[C@H]1CC[C@H]2[C@@H]3[C@H](OC(C)=O)C[C@@H]4C[C@H](OC(C)=O)CC[C@]4(C)[C@H]3CC[C@]12C [5β-cholanic acid-3α,7α-diol diacetate methyl ester]
- affinity for C. difficile spores relative to chenodeoxycholate (C. difficile spores [3]): 7-8 times
- potency as inhibitor of spore germination relative to chenodeoxycholate (C. difficile spores [3]): approximately ten times more potent
- Inhibits Germination? (C. difficile spores [3]): Yes
- Ki (C. difficile spores [3]): 40 µM

Structure (SMILES): CC(=O)O[C@@H]1CC[C@@]2(C)[C@H](CC[C@@H]3[C@@H]2CC[C@]2(C)[C@@H]([C@H](C)CCC(=O)O)CC[C@@H]32)C1 [5β-cholanic acid 3α-ol-acetate]
- Inhibits Germination? (C. difficile spores [3]): No

Structure (SMILES): CCN(CCS(=O)(=O)O)C(=O)CC[C@@H](C)[C@H]1CC[C@H]2[C@@H]3[C@@H](O)C[C@@H]4C[C@H](O)CC[C@]4(C)[C@H]3CC[C@]12C [N-ethyl-tauroursodeoxycholate]
- deconjugation [4]: 3.4+/−2.1%

Structure (SMILES): COC(=O)CC[C@@H](C)[C@H]1CC[C@H]2[C@@H]3C[C@@H](O)[C@@H]4C[C@H](O)CC[C@]4(C)[C@H]3CC[C@]12C [5β-cholanic acid 3α,6β diol methyl ester]
- Inhibits Germination? (C. difficile spores [3]): Yes
- Ki (C. difficile spores [3]): 48 µM

Structure (SMILES): C[C@H](CCC(=O)N(C)CC(=O)O)[C@H]1CC[C@H]2[C@@H]3[C@H](O)C[C@@H]4C[C@H](O)CC[C@]4(C)[C@H]3C[C@H](O)[C@]12C [cholylsarcosine]
- resistance to deconjugation [5]: resistant to deconjugation

Structure (SMILES): C[C@H](CCC(=O)O)[C@H]1CC[C@H]2[C@@H]3[C@@H](O)C[C@@H]4C[C@H](O)CC[C@]4(C)[C@H]3CC[C@]12C [UA, ursodeoxycholate]
- inhibition of vegetative growth of C. difficile, general statement (vegetative C. difficile): capable of inhibiting the vegetative growth

Structure (SMILES): C[C@H](CCC(=O)NCCS(=O)(=O)O)[C@H]1CC[C@H]2[C@@H]3[C@@H](O)C[C@@H]4C[C@H](O)CC[C@]4(C)[C@H]3CC[C@]12C [tauroursodeoxycholate]
- deconjugation [4]: 100%

Structure (SMILES): C[C@H](CCC(=O)NCCS(=O)(=O)O)[C@H]1CC[C@H]2[C@@H]3[C@H](O)C[C@@H]4C[C@H](O)CC[C@]4(C)[C@H]3CC[C@]12C [Taurochenodeoxycholate, 5β-cholanic acid-3α,7α-diol n-(2-sulphoethyl)-amide sodium salt]
- Inhibits Germination? (C. difficile spores [3]; listed as taurochenodeoxycholate, sodium salt): neither 5β-cholanic acid 3α-ol-acetate nor taurochenodeoxycholate was observed to inhibit
- Inhibits Germination? (C. difficile spores [3]; sodium salt): No

Structure (SMILES): C[C@H](CCC(=O)O)[C@H]1CC[C@H]2[C@@H]3[C@H](O)C[C@@H]4C[C@H](O)CC[C@]4(C)[C@H]3CC[C@]12C [CDCA, chenodeoxycholate]
- growth of vegetative C. difficile (vegetative C. difficile): unable to grow; also recorded: inhibited the growth
- inhibition of vegetative growth of C. difficile, general statement (vegetative C. difficile): capable of inhibiting the vegetative growth
- growth of vegetative C. perfringens (C. perfringens SM101): unable to grow; also recorded: inhibited the growth
- colony formation after transient exposure, in words (C. difficile spores [6]): did not induce colony formation
- inhibition of colony formation in response to cholate (C. difficile spores [6]): inhibited colony formation
- inhibition of colony formation in response to taurocholate (C. difficile spores [6]): inhibited colony formation

Structure (SMILES): CC(CCC(=O)O)C1CCC2C3CC(=O)C4CC(O)CCC4(C)C3CCC12C (stereo not shown) [6-ketolithocholate]
- Inhibits Germination? (C. difficile spores [3]): Yes
- Ki (C. difficile spores [3]): 200 µM

Structure (SMILES): COC(=O)CC[C@@H](C)[C@H]1CC[C@H]2[C@@H]3[C@H](O)C[C@@H]4C[C@H](O)CC[C@]4(C)[C@H]3CC[C@]12C [5β-cholanic acid 3α,7α diol methyl ester, 5β-cholanic acid-3α,7α-diol methyl ester]
- Inhibits Germination? (C. difficile spores [3]): Yes
- Ki (C. difficile spores [3]): 22 µM

Structure (SMILES): COC(=O)CC[C@@H](C)[C@H]1CC[C@H]2[C@@H]3[C@H](O)C[C@@H]4C[C@H](OC(C)=O)CC[C@]4(C)[C@H]3CC[C@]12C [5β-cholanic acid-3α,7α-diol 3-acetate methyl ester]
- Inhibits Germination? (C. difficile spores [3]): Yes
- Ki (C. difficile spores [3]): 40 µM

Structure (SMILES): C[C@H](CCC(=O)O)[C@H]1CC[C@H]2[C@@H]3CC[C@@H]4C[C@H](O)CC[C@]4(C)[C@H]3C[C@H](O)[C@]12C [DCA, deoxycholate]
- germination (decrease in optical density) in BHIS (C. difficile spores [2]): small drop in OD600 that after 60 min was not significantly more than the change in OD of spores in BHIS alone
- growth of vegetative C. difficile (vegetative C. difficile): neither C. difficile nor C. perfringens grew
- growth of vegetative C. perfringens (C. perfringens SM101): neither C. difficile nor C. perfringens grew
- colony formation after transient exposure, in words (C. difficile spores [6]): indistinguishable from that of spores incubated with taurocholate

Structure (SMILES): C[C@H](CCC(=O)O)[C@H]1CC[C@H]2[C@@H]3[C@H](O)C[C@@H]4C[C@H](O)CC[C@]4(C)[C@H]3C[C@H](O)[C@]12C [CA, cholate]
- colony formation by spores, in words (C. difficile spores [1]): stimulated efficient colony formation
- germination (decrease in optical density) in BHIS (C. difficile spores [2]): did not result in any significant decrease in the optical density
- growth of vegetative C. difficile (vegetative C. difficile): able to grow
- growth of vegetative C. perfringens (C. perfringens SM101): able to grow, however, to wild-type levels

Structure (SMILES): NCC(=O)O [glycine]
- cogermination in buffer (OD600) (C. difficile spores [2]): germinated in the presence of taurocholate but not in its absence
- germination (optical density), glycine plus taurocholate (C. difficile spores [2]): the efficiency of germination was enhanced
- germination (optical density), single agent (C. difficile spores [2]): a small decrease in the optical density
